Data: ChEMBL document CHEMBL1201862, “PubChem BioAssay data set” (2004)
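96-well plates; 48 h exposure; 5 concentrations. Endpoints by linear interpolation between flanking doses. Not reached: highest tested concentration assigned. At the GI50, growth is halved.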 Activity calls are given as the source filed them. No stated cut-off is given here; in the data, active = GI50 up to about 1.1 µM and inactive = higher.

Assays:
Assay in all cases: inhibition of tumour cell growth, NCI panel, 48 h
SW-620 = system: SW-620
NCI-H460 = system: NCI-H460
ACHN = system: ACHN
HOP-92 = system: HOP-92
HCT-116 = system: HCT-116
NCI-H522 = system: NCI-H522
COLO 205 = system: COLO 205
BT-549 = system: BT-549
MDA-MB-231 = system: MDA-MB-231
SNB-75 = system: SNB-75
MCF7 = system: MCF7
IGROV-1 = system: IGROV-1
SF-539 = system: SF-539
MDA-MB-435 = system: MDA-MB-435
U-251 = system: U-251
OVCAR-5 = system: OVCAR-5
M14 = system: M14
SK-MEL-2 = system: SK-MEL-2
MOLT-4 = system: MOLT-4
LOX IMVI = system: LOX IMVI

Row | Compound | GI50 (SW-620) | GI50 (NCI-H460) | GI50 (ACHN) | GI50 (HOP-92) | GI50 (HCT-116) | GI50 (NCI-H522) | GI50 (COLO 205) | GI50 (BT-549) | GI50 (MDA-MB-231) | GI50 (SNB-75) | GI50 (MCF7) | GI50 (IGROV-1) | GI50 (SF-539) | GI50 (MDA-MB-435) | GI50 (U-251) | GI50 (OVCAR-5) | GI50 (M14) | GI50 (SK-MEL-2) | GI50 (MOLT-4) | GI50 (LOX IMVI)
1 | Oc1c(OCc2nnc(CCCCCCCCc3nnc(COc4ccc5ccccc5c4O)n3Nc3ccccc3)n2Nc2ccccc2)ccc2ccccc12 | 10.4 µM (inactive) | 1.26 µM (inactive) | 0.845 µM (active) | 15.7 µM (inactive) | 9.2 µM (inactive) | 7.08 µM (inactive) | 0.558 µM (active) | 8.73 µM (inactive) | 8.95 µM (inactive) | 17.5 µM (inactive) | 3.52 µM (inactive) | 12 µM (inactive) | 3.98 µM (inactive) | 2.46 µM (inactive) | 12 µM (inactive) | 5.47 µM (inactive) | 1.97 µM (inactive) | 9.12 µM (inactive) | 12.7 µM (inactive) | –
2 | O=C1CCCc2c1c1c(n2Cc2ccccc2)-c2ccccc2C1=O | 32.3 µM (inactive) | 25.8 µM (inactive) | 16 µM (inactive) | 26.9 µM (inactive) | 14.4 µM (inactive) | 12.3 µM (inactive) | 17.9 µM (inactive) | 22.8 µM (inactive) | 15.4 µM (inactive) | 62.5 µM (inactive) | 29 µM (inactive) | 18.9 µM (inactive) | 21.1 µM (inactive) | 18.4 µM (inactive) | 20.7 µM (inactive) | 32.1 µM (inactive) | 21.3 µM (inactive) | 18.9 µM (inactive) | – | 17.9 µM (inactive)
3 | Cc1ccc([N+](=O)[O-])cc1S(=O)(=O)Nc1ccc(C2=NN(C(=O)c3ccccc3)C(c3ccccc3O)C2)cc1 (centres undefined) | 30.9 µM (inactive) | – | 15.7 µM (inactive) | 12 µM (inactive) | 11.4 µM (inactive) | 12.6 µM (inactive) | 14.3 µM (inactive) | 14 µM (inactive) | 15.7 µM (inactive) | 17.1 µM (inactive) | 13.4 µM (inactive) | 10.2 µM (inactive) | 17.3 µM (inactive) | 31.2 µM (inactive) | 16.5 µM (inactive) | 19.7 µM (inactive) | 16.3 µM (inactive) | 16.7 µM (inactive) | 13.6 µM (inactive) | 18.3 µM (inactive)
4 | COC(=O)c1sc(=S)sc1SCc1ccc(CSc2sc(=S)sc2C(=O)OC)cc1 | > 100 µM (inactive) | > 100 µM (inactive) | > 100 µM (inactive) | > 100 µM (inactive) | > 100 µM (inactive) | > 100 µM (inactive) | > 100 µM (inactive) | > 100 µM (inactive) | > 100 µM (inactive) | > 100 µM (inactive) | > 100 µM (inactive) | > 100 µM (inactive) | – | > 100 µM (inactive) | > 100 µM (inactive) | > 100 µM (inactive) | > 100 µM (inactive) | > 100 µM (inactive) | > 100 µM (inactive) | > 100 µM (inactive)
5 | Nc1nc(Cl)cc(NCC2(CO)CC=CC2)n1 | > 100 µM (inactive) | > 100 µM (inactive) | > 100 µM (inactive) | > 100 µM (inactive) | > 100 µM (inactive) | 68.7 µM (inactive) | > 100 µM (inactive) | 33.1 µM (inactive) | > 100 µM (inactive) | > 100 µM (inactive) | > 100 µM (inactive) | > 100 µM (inactive) | > 100 µM (inactive) | > 100 µM (inactive) | > 100 µM (inactive) | > 100 µM (inactive) | – | > 100 µM (inactive) | > 100 µM (inactive) | > 100 µM (inactive)
6 | O=C(NNC(=S)Nc1ccccc1)c1csc(NC(=S)NC2CCCCC2)n1 | 52.7 µM (inactive) | – | > 100 µM (inactive) | 94 µM (inactive) | 67.1 µM (inactive) | 79.3 µM (inactive) | 40.1 µM (inactive) | 33 µM (inactive) | 46.3 µM (inactive) | 47.1 µM (inactive) | 64.9 µM (inactive) | 29.5 µM (inactive) | 77.4 µM (inactive) | 35.5 µM (inactive) | 48.4 µM (inactive) | > 100 µM (inactive) | 69.8 µM (inactive) | > 100 µM (inactive) | 25.6 µM (inactive) | 26.6 µM (inactive)
